Reference: patent US20260265252A1, “SOLID STATE FORMS OF IMIPRIDONE DERIVATIVE” (CHIMERIX, INC., priority 2024, published 2026)
Counter-ions that a name gives are not always drawn.

Assay: ICH-compliant stability study of ONC206-HCl Drug Substance (appearance, XRPD form, HPLC assay, purity/impurities, water content, particle size, microbial)
Format: physicochemical
Design: key to Each unidentified impurity (NMT 0.5% area) / Appearance (White to off-white solid) / Polymorphic form (XRPD) (Consistent with form 2 reference diffractogram): C = Conforms; A = Absence
Procedure: The purpose of the ICH-compliant stability study was to evaluate the performance to specifications of ONC206-HCl Drug Substance under specified container closure configuration, storage conditions, and intervals.
The study was performed according to ICH Q1A(R2) and QlE Guidance documents. […]
The Container Closure Systems were: • Primary container: LDPE bag, 4×8 inches (Source: Nexus—64378); bag closure PE 180 nm (Source: Entourage), • Secondary container: LDPE bag, 4×8 inches (Source: Nexus—64378); bag closure PE 180 nm (Source: Entourage), • Tertiary container: Heat-sealed foil bag, 15×30 (Source: SERCALIA S.L.—10234), and • Outer container: Plastic drum, 6 L (Source: Curtec, HDPE ref 54021) or Plastic drum, 3.6 L (Source: Curtec).

[1] = 25 ± 2° C./60% ± 5% RH long term storage conditions, 0 months
[2] = 25 ± 2° C./60% ± 5% RH long term storage conditions, 3 months
[3] = 25 ± 2° C./60% ± 5% RH long term storage conditions, 6 months
[4] = 25 ± 2° C./60% ± 5% RH long term storage conditions, 9 months
[5] = 25 ± 2° C./60% ± 5% RH long term storage conditions, 12 months
[6] = 30 ± 2° C./65% ± 5% RH intermediate conditions, 0 months
[7] = 30 ± 2° C./65% ± 5% RH intermediate conditions, 6 months
[8] = 30 ± 2° C./65% ± 5% RH intermediate conditions, 9 months

period over which stability is confirmed (2-8° C. (Table 39)): 6 months | Appearance (White to off-white solid) (2-8° C., 0 months): C | Assay by HPLC-UV (Anhydrous & Solvent Free basis) 97.0-103.0% w/w (2-8° C., 0 months): 101.6 % w/w | Each unidentified impurity (NMT 0.5% area) (2-8° C., 0 months): C | Particle Size (Malvern) D10 (Report result μm) (2-8° C., 0 months): 28.2 μm | Particle Size (Malvern) D50 (Report result μm) (2-8° C., 0 months): 91.4 μm | Particle Size (Malvern) D90 (Report result μm) (2-8° C., 0 months): 201.3 μm | Polymorphic form (XRPD) (Consistent with form 2 reference diffractogram) (2-8° C., 0 months): C | Purity by HPLC (NLT 98.0% area) (2-8° C., 0 months): 100.0 % area | Total impurities (NMT 2.0% area) (2-8° C., 0 months): 0.00 % area | Water Content by Kf (Report result % w/w) (2-8° C., 0 months): 9.3 % w/w | Appearance (White to off-white solid) (2-8° C., 1 months): C | Assay by HPLC-UV (Anhydrous & Solvent Free basis) 97.0-103.0% w/w (2-8° C., 1 months): 101.3 % w/w | Each unidentified impurity (NMT 0.5% area) (2-8° C., 1 months): C | Particle Size (Malvern) D10 (Report result μm) (2-8° C., 1 months): 27.8 μm | Particle Size (Malvern) D50 (Report result μm) (2-8° C., 1 months): 89.8 μm | Particle Size (Malvern) D90 (Report result μm) (2-8° C., 1 months): 196.0 μm | Polymorphic form (XRPD) (Consistent with form 2 reference diffractogram) (2-8° C., 1 months): C | Purity by HPLC (NLT 98.0% area) (2-8° C., 1 months): 100.0 % area | Total impurities (NMT 2.0% area) (2-8° C., 1 months): 0.00 % area | Water Content by Kf (Report result % w/w) (2-8° C., 1 months): 9.2 % w/w | Appearance (White to off-white solid) (2-8° C., 2 months): C | Assay by HPLC-UV (Anhydrous & Solvent Free basis) 97.0-103.0% w/w (2-8° C., 2 months): 100.3 % w/w | Each unidentified impurity (NMT 0.5% area) (2-8° C., 2 months): C | Particle Size (Malvern) D10 (Report result μm) (2-8° C., 2 months): 29.4 μm | Particle Size (Malvern) D50 (Report result μm) (2-8° C., 2 months): 91.6 μm | Particle Size (Malvern) D90 (Report result μm) (2-8° C., 2 months): 189.0 μm | Polymorphic form (XRPD) (Consistent with form 2 reference diffractogram) (2-8° C., 2 months): C | Purity by HPLC (NLT 98.0% area) (2-8° C., 2 months): 100.0 % area | Total impurities (NMT 2.0% area) (2-8° C., 2 months): 0.00 % area | Water Content by Kf (Report result % w/w) (2-8° C., 2 months): 9.4 % w/w | Appearance (White to off-white solid) (2-8° C., 3 months): C | Assay by HPLC-UV (Anhydrous & Solvent Free basis) 97.0-103.0% w/w (2-8° C., 3 months): 100.3 % w/w | Each unidentified impurity (NMT 0.5% area) (2-8° C., 3 months): C | Particle Size (Malvern) D10 (Report result μm) (2-8° C., 3 months): 28.3 μm | Particle Size (Malvern) D50 (Report result μm) (2-8° C., 3 months): 90.9 μm | Particle Size (Malvern) D90 (Report result μm) (2-8° C., 3 months): 197.0 μm | Polymorphic form (XRPD) (Consistent with form 2 reference diffractogram) (2-8° C., 3 months): C | Purity by HPLC (NLT 98.0% area) (2-8° C., 3 months): 100.0 % area | Total impurities (NMT 2.0% area) (2-8° C., 3 months): 0.00 % area | Water Content by Kf (Report result % w/w) (2-8° C., 3 months): 9.5 % w/w | Appearance (White to off-white solid) (2-8° C., 6 months): C | Assay by HPLC-UV (Anhydrous & Solvent Free basis) 97.0-103.0% w/w (2-8° C., 6 months): 99.6 % w/w | Each unidentified impurity (NMT 0.5% area) (2-8° C., 6 months): C | Particle Size (Malvern) D10 (Report result μm) (2-8° C., 6 months): 28.3 μm | Particle Size (Malvern) D50 (Report result μm) (2-8° C., 6 months): 91.1 μm | Particle Size (Malvern) D90 (Report result μm) (2-8° C., 6 months): 199.0 μm | Polymorphic form (XRPD) (Consistent with form 2 reference diffractogram) (2-8° C., 6 months): C | Purity by HPLC (NLT 98.0% area) (2-8° C., 6 months): 100.0 % area | Total impurities (NMT 2.0% area) (2-8° C., 6 months): 0.00 % area | Water Content by Kf (Report result % w/w) (2-8° C., 6 months): 9.3 % w/w | period over which stability is confirmed (25° C. (Table 42), 60% RH long term storage conditions): 12 months | Appearance (White to off-white solid) [1]: C | Assay by HPLC-UV (Anhydrous & Solvent Free basis) 97.0-103.0% w/w [1]: 101.6 % w/w | Each unidentified impurity (NMT 0.5% area) [1]: C | Particle Size (Malvern) D10 (Report result μm) [1]: 28.2 μm | Particle Size (Malvern) D50 (Report result μm) [1]: 91.4 μm | Particle Size (Malvern) D90 (Report result μm) [1]: 201.3 μm | Polymorphic form (XRPD) (Consistent with form 2 reference diffractogram) [1]: C | Purity by HPLC (NLT 98.0% area) [1]: 100.0 % area | Total impurities (NMT 2.0% area) [1]: 0.00 % area | Water Content by Kf (Report result % w/w) [1]: 9.3 % w/w | Appearance (White to off-white solid) [2]: C | Assay by HPLC-UV (Anhydrous & Solvent Free basis) 97.0-103.0% w/w [2]: 99.1 % w/w | Each unidentified impurity (NMT 0.5% area) [2]: C | Particle Size (Malvern) D10 (Report result μm) [2]: 28.3 μm | Particle Size (Malvern) D50 (Report result μm) [2]: 91.4 μm | Particle Size (Malvern) D90 (Report result μm) [2]: 199.0 μm | Polymorphic form (XRPD) (Consistent with form 2 reference diffractogram) [2]: C | Purity by HPLC (NLT 98.0% area) [2]: 100.0 % area | Total impurities (NMT 2.0% area) [2]: 0.00 % area | Water Content by Kf (Report result % w/w) [2]: 9.5 % w/w | Appearance (White to off-white solid) [3]: C | Assay by HPLC-UV (Anhydrous & Solvent Free basis) 97.0-103.0% w/w [3]: 100.2 % w/w | Each unidentified impurity (NMT 0.5% area) [3]: C | Particle Size (Malvern) D10 (Report result μm) [3]: 26.8 μm | Particle Size (Malvern) D50 (Report result μm) [3]: 88.5 μm | Particle Size (Malvern) D90 (Report result μm) [3]: 196.0 μm | Polymorphic form (XRPD) (Consistent with form 2 reference diffractogram) [3]: C | Purity by HPLC (NLT 98.0% area) [3]: 100.0 % area | Total impurities (NMT 2.0% area) [3]: 0.00 % area | Water Content by Kf (Report result % w/w) [3]: 9.3 % w/w | Appearance (White to off-white solid) [4]: C | Assay by HPLC-UV (Anhydrous & Solvent Free basis) 97.0-103.0% w/w [4]: 100.4 % w/w | Each unidentified impurity (NMT 0.5% area) [4]: C | Particle Size (Malvern) D10 (Report result μm) [4]: 30.2 μm | Particle Size (Malvern) D50 (Report result μm) [4]: 92.2 μm | Particle Size (Malvern) D90 (Report result μm) [4]: 192.0 μm | Polymorphic form (XRPD) (Consistent with form 2 reference diffractogram) [4]: C | Purity by HPLC (NLT 98.0% area) [4]: 100.0 % area | Total impurities (NMT 2.0% area) [4]: 0.00 % area | Water Content by Kf (Report result % w/w) [4]: 9.3 % w/w | Appearance (White to off-white solid) [5]: C | Assay by HPLC-UV (Anhydrous & Solvent Free basis) 97.0-103.0% w/w [5]: 99.6 % w/w | Each unidentified impurity (NMT 0.5% area) [5]: C | Particle Size (Malvern) D10 (Report result μm) [5]: 28.1 μm | Particle Size (Malvern) D50 (Report result μm) [5]: 91.3 μm | Particle Size (Malvern) D90 (Report result μm) [5]: 203.0 μm | Polymorphic form (XRPD) (Consistent with form 2 reference diffractogram) [5]: C | Purity by HPLC (NLT 98.0% area) [5]: 100.0 % area | Total impurities (NMT 2.0% area) [5]: 0.00 % area | Water Content by Kf (Report result % w/w) [5]: 9.3 % w/w | period over which stability is confirmed (30° C. (Table 43), 65% RH intermediate conditions): 12 months | Appearance (White to off-white solid) [6]: C | Assay by HPLC-UV (Anhydrous & Solvent Free basis) 97.0-103.0% w/w [6]: 101.6 % w/w | Each unidentified impurity (NMT 0.5% area) [6]: C | Particle Size (Malvern) D10 (Report result μm) [6]: 28.2 μm | Particle Size (Malvern) D50 (Report result μm) [6]: 91.4 μm | Particle Size (Malvern) D90 (Report result μm) [6]: 201.3 μm | Polymorphic form (XRPD) (Consistent with form 2 reference diffractogram) [6]: C | Purity by HPLC (NLT 98.0% area) [6]: 100.0 % area | Total impurities (NMT 2.0% area) [6]: 0.00 % area | Water Content by Kf (Report result % w/w) [6]: 9.3 % w/w | Appearance (White to off-white solid) [7]: C | Assay by HPLC-UV (Anhydrous & Solvent Free basis) 97.0-103.0% w/w [7]: 99.2 % w/w | Each unidentified impurity (NMT 0.5% area) [7]: C | Particle Size (Malvern) D10 (Report result μm) [7]: 29.3 μm | Particle Size (Malvern) D50 (Report result μm) [7]: 92.1 μm | Particle Size (Malvern) D90 (Report result μm) [7]: 199.0 μm | Polymorphic form (XRPD) (Consistent with form 2 reference diffractogram) [7]: C | Purity by HPLC (NLT 98.0% area) [7]: 100.0 % area | Total impurities (NMT 2.0% area) [7]: 0.00 % area | Water Content by Kf (Report result % w/w) [7]: 9.3 % w/w | Appearance (White to off-white solid) [8]: C | Assay by HPLC-UV (Anhydrous & Solvent Free basis) 97.0-103.0% w/w [8]: 100.2 % w/w | Each unidentified impurity (NMT 0.5% area) [8]: C
Compound: O=C1C2=C(CCN(Cc3ccccc3)C2)N2CCN=C2N1Cc1ccc(F)cc1F [ONC206-HCl, 7-benzyl-4-(2,4-difluorobenzyl)-2,4,6,7,8,9-hexahydroimidazo[1,2-a]pyrido[3,4-e]pyrimidin-5(1H)-one]
